pIC50: −log10 of the molar value.
Target: Poly [ADP-ribose] polymerase 1 (Homo sapiens, UniProt P09874)
Experiment: PARP-1 Enzyme Activity Assay
Experimental: PARP-1 chemical […] detection kit was purchased from BPS Bioscience. The histone solution in the kit was diluted 5× with 1×PBS, and 25 μL of the diluted histone solution was added to a microwell plate and incubated overnight at 4° C. After the incubation, the plate was washed three times with PBST (0.05% Tween-20). 100 μL of the blocking solution was added to the microwell plate and incubated at 25° C. for 90 minutes. After the incubation, the plate was washed three times with PBST. 2.5 μL of compounds at different concentrations diluted in test buffer and 12.5 μL of substrate mixed solution (1.25 μL 10×PARP test buffer; 1.25 μL 10×PARP test mixed solution; 2.5 μL Activated DNA, 7.5 μL double-distilled water) were added to the microwell plate. […] Streptavidin-HRP was diluted 50× with a blocking solution, and 25 μL of the diluent was added to the microwell plate and incubated at 25° C. for 30 minutes. After the incubation, the plate was washed three times with PBST. ELISA ECL substrate A and substrate B were mixed at a ratio of 1:1 (v/v), 50 μL of the mixture was added to the microwell plate, and the chemiluminescence value was read.

Poly [ADP-ribose] polymerase 1, sequence (P09874 whole entry): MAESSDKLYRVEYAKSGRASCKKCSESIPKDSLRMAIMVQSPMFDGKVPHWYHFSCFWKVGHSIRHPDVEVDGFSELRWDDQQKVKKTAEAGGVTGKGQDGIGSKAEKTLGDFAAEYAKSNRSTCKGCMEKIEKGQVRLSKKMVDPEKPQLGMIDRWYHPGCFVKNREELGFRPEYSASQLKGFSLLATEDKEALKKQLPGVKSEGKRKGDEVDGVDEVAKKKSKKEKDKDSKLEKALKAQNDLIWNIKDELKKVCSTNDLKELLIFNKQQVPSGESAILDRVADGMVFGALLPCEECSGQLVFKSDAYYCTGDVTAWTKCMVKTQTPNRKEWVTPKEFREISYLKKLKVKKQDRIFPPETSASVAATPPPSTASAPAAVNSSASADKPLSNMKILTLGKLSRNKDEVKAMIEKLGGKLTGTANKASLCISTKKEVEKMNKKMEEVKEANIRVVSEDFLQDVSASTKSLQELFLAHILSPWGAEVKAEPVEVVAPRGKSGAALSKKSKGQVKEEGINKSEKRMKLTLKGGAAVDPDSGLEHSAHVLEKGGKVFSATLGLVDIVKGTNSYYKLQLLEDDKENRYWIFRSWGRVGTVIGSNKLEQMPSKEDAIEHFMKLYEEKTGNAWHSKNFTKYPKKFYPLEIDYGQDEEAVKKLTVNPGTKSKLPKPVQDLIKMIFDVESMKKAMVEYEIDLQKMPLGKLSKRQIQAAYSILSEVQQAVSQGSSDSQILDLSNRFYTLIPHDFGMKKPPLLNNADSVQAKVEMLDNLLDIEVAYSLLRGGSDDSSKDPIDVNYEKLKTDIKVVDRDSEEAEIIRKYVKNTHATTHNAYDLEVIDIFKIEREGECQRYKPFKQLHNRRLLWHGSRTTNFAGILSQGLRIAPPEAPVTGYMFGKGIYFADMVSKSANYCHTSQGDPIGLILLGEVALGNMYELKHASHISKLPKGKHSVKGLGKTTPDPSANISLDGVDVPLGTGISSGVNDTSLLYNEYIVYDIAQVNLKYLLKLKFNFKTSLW

Compound `CCc1cc2ncc(CN3CCC(Nc4ccc(C(=O)NC)nc4)C3)cc2[nH]c1=O` (stereo unspecified) [US20250034168, Compound 7] has a pIC50 of 8.55.
